ChEMBL document CHEMBL1136087, “Synthesis of radiolabeled biphenylsulfonamide matrix metalloproteinase inhibitors as new potential PET cancer imaging agents” (Bioorg Med Chem Lett, 2003)

target: Collagenase 3 (Homo sapiens) (UniProt P45452); test: Inhibition of human matrix metalloprotease-13 at 20 nM

Compared with `COC(=O)[C@@H](NS(=O)(=O)c1ccc(-c2cccc(OC)c2)cc1)C(C)C`, `COC(=O)[C@@H](NS(=O)(=O)c1ccc(-c2cccc(F)c2)cc1)C(C)C` is lower in Inhibition effect: 0.939 for the first, 0.919 for the second.

First: COC(=O)[C@@H](NS(=O)(=O)c1ccc(-c2ccc([N+](=O)[O-])cc2)cc1)C(C)C
Second: CC(C)[C@H](NS(=O)(=O)c1ccc(-c2ccc([N+](=O)[O-])cc2)cc1)C(=O)O
The Inhibition effect of the first is lower: 0.883 for the first, 0.897 for the second.

Going from `COC(=O)[C@@H](NS(=O)(=O)c1ccc(-c2ccc(F)cc2)cc1)C(C)C` to `CC(C)[C@H](NS(=O)(=O)c1ccc(-c2ccc(F)cc2)cc1)C(=O)O`, the Inhibition effect rises from 0.91 to 0.918.

Compared with `COc1ccc(-c2ccc(S(=O)(=O)N[C@H](C(=O)O)C(C)C)cc2)cc1`, `COC(=O)[C@@H](NS(=O)(=O)c1ccc(-c2ccc(OC)cc2)cc1)C(C)C` is lower in Inhibition effect: 0.938 for the first, 0.935 for the second.

Compared with `COC(=O)[C@@H](NS(=O)(=O)c1ccc(-c2ccccc2OC)cc1)C(C)C`, `COC(=O)[C@@H](NS(=O)(=O)c1ccc(-c2ccccc2F)cc1)C(C)C` is lower in Inhibition effect: 0.942 for the first, 0.922 for the second.
